In US4831027A, “Imidazo-benzoxazinones, the preparation thereof and pharmaceutical compositions containing these compounds” (Dr. Karl Thomae GmbH, priority 1986, dated 1989):

System: anaesthetized cats
Experiment: Determination of the effect on blood pressure and positive inotropic activity in anaesthetized cats
Type: in vivo
Details: 0.3 mg/kg i.v., average of 2 cats; for Diastolic blood pressure change: anaesthetized cats (sodium pentobarbital), pressure in aorta abdominalis; for Duration of effect (half life) / Increase of dp/dt (contractility parameter dp/dtmax): anaesthetized cats; for Increase of dp/dt (contractility parameter dp/dtmax): pressure in left ventricle, catheter-tip manometer
Protocol: 1. Determination of the effect on blood pressure and positive inotropic activity in anaesthetized cats: The tests were carried out on cats which had been anaesthetized with sodium pentobarbital (40 mg/kg i.p. and 8 mg/kg/hour i.v.). The animals breathed spontaneously. The arterial blood pressure was measured in the aorta abdominalis using a Statham pressure transducer (P 23 Dc). To determine the positive inotropic activity the pressure in the left ventricle was measured using a catheter-tip manometer (Millar PC-350 A). From this, the contractility parameter dp/dtmax was obtained using an analogue differentiator. The test substance was injected into a vena femoralis. Polydiol 200 was used as solvent. The substance was tested on 2 cats, dosage 0.3 mg/kg i.v.

SMILES | Diastolic blood pressure change | Duration of effect (half life) | Increase of dp/dt (contractility parameter dp/dtmax)
CC1(C)OC(=O)Nc2cc3nc(-c4ccncc4)[nH]c3cc21 [A, 8,8-dimethyl-2-(4-pyridyl)-8-hydro-(5H)-imidazo[5,4-g][3,1]benzoxazin-6-one] | 0 mmHg | 18 min | +43%
CCN1C(=O)OC(C)(C)c2cc3[nH]c(-c4ccncc4)nc3cc21 [B, 5-ethyl-8,8-dimethyl-2-(4-pyridyl)-8-hydro-(5H)imidazo[5,4-g][3,1]benzoxazin-6-one] | -21 mmHg | 16 min | +52%
CCCc1nc2cc3c(cc2[nH]1)C(C)(C)OC(=O)N3 [C, 8,8-dimethyl-2-n-propyl-8-hydro-(5H)-imidazo[5,4-g][3,1]benzoxazin-6-one] | -11 mmHg | 11 min | +31%
CCN1C(=O)OC(C)(C)c2cc3[nH]c(-c4ccco4)nc3cc21 [D, 5-ethyl-8,8-dimethyl-2-(2-furyl)-8-hydro-(5H)imidazo[5,4-g][3,1]benzoxazin-6-one] | -37 mmHg | 4 min | +41%
CC1(C)OC(=O)Nc2cc3nc(-c4ccco4)[nH]c3cc21 [E, 8,8-dimethyl-2-(2-furyl)-8-hydro-(5H)-imidazo[5,4-g][3,1]benzoxazin-6-one] | -16 mmHg | 7 min | +31%
CC1(C)OC(=O)Nc2cc3nc(-c4cccs4)[nH]c3cc21 [F, 8,8-dimethyl-2-(2-thienyl)-8-hydro-(5H)-imidazo[5,4-g][3,1]benzoxazin-6-one] | -24 mmHg | 10 min | +28%
